The source of these data is paper PMC11595864, “Design, Synthesis, and Evaluation of Novel Thiazole-Containing Algicides Inspired by Bacillamide A” (Marine Drugs, 2024).

The structures appear in SMILES notation. Values after ≈ are worked out from the molar mass of the structure shown. Like-named read-outs stand apart in the source and are kept apart here.

One may read the melting point as the temperature, or range, at which the solid turns liquid. What is called inhibition is the relative decrease from the control value, in per cent. The term EC50 denotes the concentration needed to bring the measured effect to its halfway point.

Data set [1] relates to P. minimum. As to the kind of experiment: ROS level (DCFH-DA fluorescent probe assay). Type of data set: cell-based, Prorocentrum minimum. The settings on record: 10 mg/L, 72 h. On the procedure: (§1) P. minimum, S. costatum, and A. pacificum cells were cultured in F/2 medium. All flasks were cultivated under 12 h of light: 12 h of dark and 70 μmol m^−2 s^−1 at 20 ± 1 °C. […] Finally, the algal cells were collected and diluted in 6 mL of phosphate buffer (pH = 7.8). A small amount of quartz sand was added into the algal cells under ice bath. The obtained homogenate was next poured into a centrifuge tube and centrifuged at 5000 r/min for 25 min at 4 °C. The obtained supernatant was placed in the refrigerator at 4 °C for the next step experiment.
(§2) The reactive oxygen species (ROS) assay kit was purchased from SolarBio Co., Ltd., Beijing, China. The 2′,7′-dichlorodihydrofluorescein diacetate (DCFH-DA) could be oxidized by reactive oxygen or nitrogen species (ROS/RNS) to generate high fluorescent 2′,7′-dichlorofluoroscein (DCF). DCF could be detected by Cyto-FLEX flow cytometry.

Data set [2] has as its system S. costatum. The data set can be described thus: ROS level (DCFH-DA fluorescent probe assay). Format: cell-based, Skeletonema costatum. The settings on record: 10 mg/L, 72 h. On the procedure: as §1, §2
Data set [3] concerns A. pacificum. As to the kind of experiment: Algicidal activity assay, EC50. Type of data set: cell-based, Alexandrium pacificum. The settings on record: Mean ± SD, n = 3; for EC50: Alexandrium pacificum. On the procedure: (§3) P. minimum, A. pacificum, and S. costatum were purchased from Guangyu Biological Technology Co., Ltd. (Shanghai, China). The algae strain was cultured in F/2 medium ((12 h light: 12 h dark cycle), 20 ± 1 °C, 70 μmol m^−2 s^−1). Purchased algae were transferred to sterile conical flasks for culture; after the algae proliferation was stabilized, the expanded culture was next carried out following standard conditions.
(§4) Copper sulfate and Diuron were used as the positive controls. EC50 values were calculated according to the equation of the quantity–effect relationship in Equation (2) using the Hill model of Graph Pad Prism software (8.0.2). (2) Y=Bottom+(Top-Bottom)/1+10^(Log EC50-X)×Hill Slope
(§5) The X and Y values represent the concentration (mg/L) and response values of the control and experimental groups, respectively. The Top, Bottom, and Hill Slope represent the maximum response, minimum response, and the curve slope, respectively. The EC50 represents half of the maximum effective concentration.

A further data set concerns zebrafish. The data set can be described thus: Zebrafish acute toxicity assay. The settings on record: zebrafish. Format: in vivo. The procedure: Zebrafish acute toxicity of bacillamide A and synthesized BDs were evaluated at 0.1 mg/L, 1 mg/L, and 10 mg/L, respectively. Diuron and CuSO4 were used as positive controls. The commercial zebrafish (body length > 3.0 cm) were domesticated in aerated tap water for 24 h, fed once daily for seven consecutive days, and stopped being fed before the experiment.
4. Acute toxicity table S1.
Compound Concentration Survival percent Acute
aAccording to the Guide for Environmental Safety Assessment of Chemical Pesticides
4 groups and treated with different compounds for 96 h.

In data set [4] the test system is P. minimum. The data set can be described thus: Algicidal activity assay, EC50. The settings on record: for EC50: Prorocentrum minimum, read-out: EC50 P. minimum. Type of data set: cell-based, Prorocentrum minimum. On the procedure:
as §3, §4, §5

The test system of data set [5] is S. costatum. As to the kind of experiment: Algicidal activity assay, EC50. Type of data set: cell-based, Skeletonema costatum. The settings on record: for EC50: Skeletonema costatum, read-out: EC50 S. costatum. The procedure:
as §3, §4, §5

For data set [6], the system named is S. costatum. The data set can be described thus: Growth-inhibition rate measurement at 50 mg/L, 24 h. Format: cell-based, Skeletonema costatum. The settings on record: for inhibition at 50 µg/mL: Skeletonema costatum, read-out: inhibition rate against S. costatum. The procedure:
as §3
(§6) The stock solutions of bacillamide A and different BDs were prepared in dimethyl sulfoxide (DMSO) with the requisition amount. […] The controls received the same volume of DMSO. The inhibitory activities of bacillamide A, different BDs, and positive controls were screened by 96 well microtiter plates at different concentrations. Inhibition ratios (IRs) of cupric sulfate (50 mg/L, positive control), bacillamide A (50 mg/L), and BDs (50 mg/L) were calculated on algae using Equation (1). (1) IR=Cc0-Cex/Cc0×100%
(§7) The CC0 and Cex, respectively, represent the algal densities of the control and experimental groups.

Data set [7] has as its system A. pacificum. The data set is described as above. Format: cell-based, Alexandrium pacificum. The settings on record: for inhibition at 50 µg/mL: Alexandrium pacificum, read-out: inhibition rate against A. pacificum. The procedure: as §3, §6, §7
Data set [8] concerns P. minimum. The description is as above. Format: cell-based, Prorocentrum minimum. The settings on record: for inhibition at 50 µg/mL: Prorocentrum minimum, read-out: inhibition rate against P. minimum. On the procedure: as §3, §6, §7

Molecule `O=C(NCCc1c[nH]c2ccccc12)c1csc(-c2cccs2)n1` [Compound 6e] displayed a melting point of 189 to 190 °C.

Turning to `O=S(=O)([O-])[O-].[Cu+2]` [CuSO4, cupric sulfate anhydrous, reference compound], the “increase of ROS levels in P. minimum” value with P. minimum [1] was 9.6 fold. The “increase of ROS levels in S. costatum” value with S. costatum [2] was found to be 7.7 fold. For the same molecule, the “EC50 A. pacificum” value in the data set with A. pacificum [3] was determined as 2.34 ± 0.06 µg/mL. Further, the Survival percent amounted to 100 in the data set on zebrafish (0.1 mg/L, 0h); 100 with zebrafish (0.1 mg/L, 24h); 80 with zebrafish (0.1 mg/L, 48h); 73 in the data set on zebrafish (0.1 mg/L, 72h); 73 with zebrafish (0.1 mg/L, 96h); 100 in the data set with zebrafish (1 mg/L, 0h). Moreover, the Survival percent in the data set on zebrafish (1 mg/L, 24h) worked out at 50; in the data set with zebrafish (1 mg/L, 48h) it was 50; in the data set on zebrafish (1 mg/L, 72h), 43; in the data set with zebrafish (1 mg/L, 96h) it was 43; in the data set on zebrafish (10 mg/L, 0h), 100; in the data set on zebrafish (10 mg/L, 24h) it was 0. For the same molecule, the Survival percent is 0 with zebrafish (10 mg/L, 48h); 0 in the data set on zebrafish (10 mg/L, 72h); 0 in the data set on zebrafish (10 mg/L, 96h). The “EC50 P. minimum” value with P. minimum [4] (Mean ± SD, n = 3) came to 3.61 ± 0.32 µg/mL. In the data set on S. costatum [5] (Mean ± SD, n = 3), the “EC50 S. costatum” value turned out to be 3.12 ± 0.21 µg/mL.

Consider `O=C(NCCc1c[nH]c2ccccc12)c1csc(-c2ccccc2)n1` [Compound 6a], for which the inhibition at 50 µg/mL was above 70% in the data set with S. costatum [6] and 70 to 95% in the data set with A. pacificum [7]. For the same molecule, the EC50 in the data set with A. pacificum [3] turned out to be 3.32 ± 0.79 µg/mL (≈ 9.56 µM); with P. minimum [4] (Mean ± SD, n = 3), 1.74 ± 0.4 µg/mL (≈ 5.01 µM); in the data set on S. costatum [5] (Mean ± SD, n = 3) it was 0.11 ± 0.02 µg/mL (≈ 0.317 µM). The Survival percent in the data set with zebrafish (0.1 mg/L, 0h) was determined as 100; in the data set with zebrafish (0.1 mg/L, 24h) it was 100; in the data set on zebrafish (0.1 mg/L, 48h), 100; with zebrafish (0.1 mg/L, 72h), 100; with zebrafish (0.1 mg/L, 96h), 100; in the data set with zebrafish (1 mg/L, 0h), 100. Also, the Survival percent in the data set on zebrafish (1 mg/L, 24h) was 83; in the data set with zebrafish (1 mg/L, 48h), 80; in the data set on zebrafish (1 mg/L, 72h) it was 80; with zebrafish (1 mg/L, 96h) it was 73; with zebrafish (10 mg/L, 0h), 100; in the data set on zebrafish (10 mg/L, 24h), 0. Besides, the Survival percent was 0 in the data set on zebrafish (10 mg/L, 48h); 0 in the data set on zebrafish (10 mg/L, 72h); 0 in the data set on zebrafish (10 mg/L, 96h). Further, the “fold more potent than CuSO4” value in the data set with S. costatum [5] (from EC50 against S. costatum) was found to be 28 fold. In addition, the “fold more potent than Diuron” value with S. costatum [5] (from EC50 against S. costatum) amounted to 39 fold. Besides, the “fold more potent than bacillamide A” value with S. costatum [5] (from EC50 against S. costatum) was 23 fold.

Regarding `CN(C)CCNC(=O)c1csc(-c2ccccc2)n1` [Compound 7d], the inhibition at 50 µg/mL with A. pacificum [7] was 70 to 95%. Further, the EC50 in the data set on A. pacificum [3] was 2.02 ± 0.54 µg/mL (≈ 7.34 µM); in the data set on P. minimum [4] (Mean ± SD, n = 3), 3.22 ± 0.39 µg/mL (≈ 11.7 µM); with S. costatum [5] (Mean ± SD, n = 3) it was 0.77 ± 0.21 µg/mL (≈ 2.8 µM).

Regarding `CC(C)(C)OC(=O)NCCNC(=O)c1csc(-c2ccccc2)n1` [Compound 7f], the melting point is 162 to 163 °C. Further, the “inhibition rate against A. pacificum” value with A. pacificum [7] was “lost most of its algicidal activity”. In the data set on P. minimum [8], the “inhibition rate against P. minimum” value was “lost most of its algicidal activity”.

Regarding `CN(C)C(=O)Nc1ccc(Cl)c(Cl)c1` [Diuron, reference compound], the concentration giving a half-maximal response (EC50) worked out at 5.69 ± 0.46 µg/mL (≈ 24.4 µM) in the data set with A. pacificum [3], 4.72 ± 0.41 µg/mL (≈ 20.2 µM) with P. minimum [4] and 4.32 ± 0.14 µg/mL (≈ 18.5 µM) in the data set with S. costatum [5].

For `O=C(NCCc1ccccc1)c1csc(-c2ccccc2)n1` [Compound 7c], the inhibition at 50 µg/mL with A. pacificum [7] was 70 to 95%; in the data set on P. minimum [8], 74.7%. The EC50 turned out to be 0.53 ± 0.32 µg/mL (≈ 1.72 µM) in the data set on A. pacificum [3]; 3.38 ± 0.84 µg/mL (≈ 11 µM) with P. minimum [4] (Mean ± SD, n = 3); 0.24 ± 0.058 µg/mL (≈ 0.778 µM) with S. costatum [5] (Mean ± SD, n = 3).

Take `O=C(Nc1ccccc1)c1csc(-c2ccccc2)n1` [Compound 7e]: in the data set with A. pacificum [7], the inhibition at 50 µg/mL fell in the range of 70 to 95%. Further, the EC50 in the data set with A. pacificum [3] turned out to be 0.69 ± 0.07 µg/mL (≈ 2.46 µM); in the data set on P. minimum [4] (Mean ± SD, n = 3), 3.23 ± 0.39 µg/mL (≈ 11.5 µM); with S. costatum [5] (Mean ± SD, n = 3), 1.1 ± 0.31 µg/mL (≈ 3.92 µM).

In turn, `NCCNC(=O)c1csc(-c2ccccc2)n1` [Compound 7g] displayed a melting point of 173 to 174 °C. Besides, the inhibition at 50 µg/mL in the data set with P. minimum [8] came to 76.9%. For the same molecule, in the data set with A. pacificum [3], the EC50 was found to be 3.42 ± 0.13 µg/mL (≈ 13.8 µM). For the same molecule, in the data set with P. minimum [4] (Mean ± SD, n = 3), the half-maximal effective concentration (EC50) came out at 2.02 ± 0.27 µg/mL (≈ 8.17 µM). Moreover, the EC50 with S. costatum [5] (Mean ± SD, n = 3) came out at 2.28 ± 0.37 µg/mL (≈ 9.22 µM).

With `COc1ccc2[nH]cc(CCNC(=O)c3csc(-c4ccccc4)n3)c2c1` [Compound 7b], the melting point is 164 to 165 °C. Also, in the data set on P. minimum [8], the inhibition at 50 µg/mL came out at 82.3%. This molecule showed an EC50 in the data set with A. pacificum [3] of 0.72 ± 0.021 µg/mL (≈ 1.91 µM). The EC50 in the data set on P. minimum [4] (Mean ± SD, n = 3) came out at 1.32 ± 0.38 µg/mL (≈ 3.5 µM). The EC50 in the data set on S. costatum [5] (Mean ± SD, n = 3) worked out at 0.37 ± 0.07 µg/mL (≈ 0.98 µM).

In turn, `O=C(NCCc1c[nH]c2ccccc12)c1csc(-c2ccccc2[N+](=O)[O-])n1` [Compound 6b] returned a melting point of 122 to 123 °C.

Take `CCOc1ccc(-c2nc(C(=O)NCCc3c[nH]c4ccccc34)cs2)cc1` [Compound 6c]: the melting point is 184 to 185 °C. For the same molecule, in the data set on S. costatum [6], the “inhibition rate against S. costatum” value stood at 72.6% and the inhibition at 50 µg/mL was above 70%. The inhibition at 50 µg/mL in the data set with P. minimum [8] amounted to 70.8%. In addition, the EC50 in the data set on A. pacificum [3] worked out at 2.43 ± 0.42 µg/mL (≈ 6.21 µM). Moreover, in the data set on P. minimum [4] (Mean ± SD, n = 3), the EC50 came out at 1.29 ± 0.08 µg/mL (≈ 3.3 µM). In the data set with S. costatum [5] (Mean ± SD, n = 3), the concentration for a half-maximal effect (EC50) is 0.51 ± 0.04 µg/mL (≈ 1.3 µM).
